Earlier results in US20230129262A1, “METHODS AND PHARMACEUTICAL COMPOSITIONS OF THROMBOXANE A2 RECEPTOR ANTAGONIST FOR THE TREATMENT OF COVID-19” (priority 2020, published 2023).
Where two headings read alike, the source gives them in different places.

Columns and labels:
[1] = tested on: platelet activation; conditions: Tarantino, Amadio et al. 2016
[2] = target: T1, TP receptors (Rattus norvegicus, UniProt P34978); conditions: infusion of the TxA2 mimetic, preclinical studies (Bertolino, Valentin et al. 1995)
T1 sequence (P34978 1-341): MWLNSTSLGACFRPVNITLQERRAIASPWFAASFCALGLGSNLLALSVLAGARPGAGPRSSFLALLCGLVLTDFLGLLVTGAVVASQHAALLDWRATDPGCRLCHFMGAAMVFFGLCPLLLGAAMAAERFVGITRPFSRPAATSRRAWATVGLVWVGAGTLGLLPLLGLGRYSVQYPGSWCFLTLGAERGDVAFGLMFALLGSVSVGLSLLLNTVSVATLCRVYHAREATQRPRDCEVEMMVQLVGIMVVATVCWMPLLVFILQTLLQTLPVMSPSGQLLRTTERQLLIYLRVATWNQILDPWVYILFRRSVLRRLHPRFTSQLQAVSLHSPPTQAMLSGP

[3] = tested on: TP receptor; conditions: TP receptor blockade, several cited studies
[4] = target: T2, TP receptor (Mus musculus, UniProt P30987); conditions: pressure-overload model of pulmonary arterial hypertension (West, Voss et al. 2016)
T2 sequence (P30987 1-341): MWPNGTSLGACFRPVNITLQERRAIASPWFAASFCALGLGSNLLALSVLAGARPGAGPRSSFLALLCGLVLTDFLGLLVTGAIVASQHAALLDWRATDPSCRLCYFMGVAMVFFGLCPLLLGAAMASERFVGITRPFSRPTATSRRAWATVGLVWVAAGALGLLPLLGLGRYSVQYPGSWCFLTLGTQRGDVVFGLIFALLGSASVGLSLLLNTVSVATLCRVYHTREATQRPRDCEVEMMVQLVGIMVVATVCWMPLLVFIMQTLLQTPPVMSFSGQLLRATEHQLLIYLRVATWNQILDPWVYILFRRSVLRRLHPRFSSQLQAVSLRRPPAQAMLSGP

[5] = target: T2, TP receptor; conditions: model of Duchenne muscular dystrophy (West, Galindo et al. 2019)
[6] = target: T3, TP receptor (Homo sapiens, UniProt P21731); conditions: patients with acute lung injury; by selectively relaxing pulmonary veins and decreasing post-capillary resistance (Schuster, Kozlowski et al. 2001)
T3 sequence (P21731 1-343): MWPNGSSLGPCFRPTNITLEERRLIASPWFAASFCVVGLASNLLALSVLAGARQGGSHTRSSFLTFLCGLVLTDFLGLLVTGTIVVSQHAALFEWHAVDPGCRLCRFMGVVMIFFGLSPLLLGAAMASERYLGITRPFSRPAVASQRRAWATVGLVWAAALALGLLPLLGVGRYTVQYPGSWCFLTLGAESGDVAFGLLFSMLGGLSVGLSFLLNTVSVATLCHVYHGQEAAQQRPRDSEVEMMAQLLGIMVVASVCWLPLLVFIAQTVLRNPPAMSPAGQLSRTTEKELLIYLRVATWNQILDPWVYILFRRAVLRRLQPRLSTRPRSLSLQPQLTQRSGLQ

[7] = tested on: TP receptor
[8] = target: T2, TP receptor; conditions: bleomycin model of pulmonary fibrosis (Suzuki, Kropski et al. 2021)
[9] = target: T2, TP receptor; conditions: chronic hypoxia in mice, potentiated in COX-2 knock-out mice (Cathcart, Tamosiuniene et al. 2008)

## CC(=O)Oc1ccccc1C(=O)O [aspirin, acetylsalicylic acid]
high-dose aspirin (1,000 mg/day), compared to propensity score matched COVID-19 controls (Liu, Huang et al. 2021)
  mortality: reduced
low-dose aspirin use, hospitalized COVID-19 patients (Chow, Khanna et al. 2021)
  risk of mechanical ventilation, ICU admission, and in-hospital mortality: decreased risk
[1]
  platelet activation in venous thrombosis: prevents

## CCCCC[C@H](O)/C=C/[C@@H]1[C@@H](C/C=C\CCCC(=O)O)[C@H]2CO[C@@H]1C2 [U-16,619, 9,11-dideoxy-9α, 11α-methanoepoxy prostaglandin F2α]
[2]
  plasma fluid and protein accumulation in the lung: strongly increased

## C[C@H](c1ccccc1)[C@@H](O)/C=C/[C@@H]1[C@H](C/C=C\CCCC(=O)O)[C@H]2CC[C@@H]1O2 [SQ28668]
[3]
  lung injury-associated pulmonary hypertension, hypoxemia, and pulmonary edema: inhibited

## CCCCCNC(=O)c1coc([C@H]2[C@@H](Cc3ccccc3CCC(=O)O)[C@@H]3CC[C@H]2O3)n1 [ifetroban, 3-[2-[[(1S,2R,3S,4R)-3-[4-(pentylcarbamoyl)-1,3-oxazol-2-yl]-7-oxabicyclo[2.2.1]heptan-2-yl]methyl]phenyl]propanoic acid]
[4]
  cardiac function: improves
  right ventricular fibrosis: dramatically decreases
[5]
  cardiac function: improves
  right ventricular fibrosis: dramatically decreases
[6]
  pulmonary capillary pressure: reduced
[3]
  lung injury-associated pulmonary hypertension, hypoxemia, and pulmonary edema: inhibited
[7]; compared with septic controls (Quinn and Slotman 1999)
  arterial and tissue oxygenation: significantly increased
[7]; sepsis animal model (Quinn and Slotman 1999)
  systemic and pulmonary vasoconstriction: ameliorated
[8]
  development of fibrosis: blocked
[9]
  pulmonary hypertension and pulmonary intravascular thrombosis: prevented

## CCCCCCC(=O)NCC(=O)NC[C@H]1[C@@H](C/C=C\CCCC(=O)O)[C@@H]2CC[C@H]1O2 [SQ30741]
[3]
  lung injury-associated pulmonary hypertension, hypoxemia, and pulmonary edema: inhibited
